Assay results: patent US10125118B2, “Heteroaryl compounds and their use as therapeutic drugs” (Dong-A Socio Holdings Co., Ltd., priority 2015, dated 2018)
Read-outs that look alike come from different tables or passages of the source.

Key:
[1] = tested on: CD8-MerTK in Ba/F3-CDM cells; assay: In cell MER kinase assay, Ba/F3-CDM cell proliferation without IL-3 (Celltiter-Glo); type: cell-based, murine; conditions: 48 hours compound treatment, read-out: Cell growth inhibition (GI50)
Protocol: To establish an in cell kinase assay for MerTK kinase, the IL-3 dependent Ba/F3 cells of murine lymphoid origin was transfected with CD8-MerTK. […] For a routine cellular assay, Ba/F3-CDM cells were seeded at 2,000 cells per well in 384-well cell culture plate containing DMEM/10% FBS culture media and incubated for 24 hours before addition of compounds pre-diluted in culture media. Following compound treatment, cells were further incubated for 48 hours and the proliferation was measured. To discriminate a Ba/F3 growth inhibition by a specific inhibition of MerTK kinase following compound treatment vs growth inhibition due to a non-specific unintended cytotoxicity of compounds, we routinely carried out control sets of Ba/F3 cells in parallel that grown in IL3-supplemented growth media. In the presence of IL-3, the proliferation of Ba/F3 is no longer dependent on the MerTK activity. Cell growth and proliferation was measured with Celltiter-Glo™ system (Promega, USA) according to the manufacturer's instruction. The half-maximal growth inhibitory concentration (GI50) value was calculated with Prism6.0 software (GraphPad, USA).

[2] = biological target: human c-MER catalytic domain (Homo sapiens (Human), UniProt Q12866); assay: LanthaScreen TR-FRET kinase assay, c-MER
[3] = read-out: Mer TK inhibition (IC50), Biochemical IC50, TR-FRET, 10 uM ATP

human c-MER catalytic domain, sequence (Q12866 587-858): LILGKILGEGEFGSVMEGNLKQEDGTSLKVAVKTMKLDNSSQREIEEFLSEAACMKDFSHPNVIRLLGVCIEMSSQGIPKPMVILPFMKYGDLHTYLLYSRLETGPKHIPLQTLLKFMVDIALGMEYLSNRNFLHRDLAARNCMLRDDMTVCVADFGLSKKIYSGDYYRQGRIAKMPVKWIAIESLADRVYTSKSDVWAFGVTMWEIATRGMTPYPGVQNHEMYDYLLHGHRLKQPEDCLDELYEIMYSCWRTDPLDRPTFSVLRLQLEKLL

Row | SMILES | GI50 [1] | IC50 [2, 3] | IC50 [2]
1 | CC(c1ccc(-c2ccc(CO[C@H]3CCC[C@@H]3NC(=O)c3cc(-c4cnn(C)c4)cnc3N)cc2)cc1)N1CCN(C)CC1 (stereo partly drawn) [Example 208, 2-amino-5-(1-methyl-1H-pyrazol-4-yl)-N-((1S,2S)-2-((4′-(1-(4-methylpiperazin-1-yl)ethyl)-[1,1′-biphenyl]-4-yl)methoxy)cyclopentyl)nicotinamide] | < 100 nM | < 10 nM | –
2 | Cn1cc(-c2cnc(N)c(C(=O)N[C@H]3CCC[C@@H]3OCc3ccc(C#CCCCCO)cc3)c2)cn1 [Example 251, 2-amino-N-((1S,2S)-2-((4-(6-hydroxyhex-1-yn-1-yl)benzyl)oxy)-cyclopentyl)-5-(1-methyl-1H-pyrazol-4-yl)nicotinamide] | > 1000 nM | < 10 nM | –
3 | CN1CCN(C(C)(C)c2ccc(-c3ccc(CO[C@H]4CCC[C@@H]4NC(=O)c4cc(-c5ccc(F)nc5)cnc4N)cc3)cc2)CC1 [Example 225, 6-amino-6′-fluoro-N-((1S,2S)-2-((4′-(2-(4-methylpiperazin-1-yl)propan-2-yl)-[1,1′-biphenyl]-4-yl)methoxy)cyclopentyl)-[3,3′-bipyridine]-5-carboxamide] | 100 to 500 nM | < 10 nM | –
4 | Cc1ccc(CO[C@H]2CCC[C@@H]2NC(=O)c2cc(-c3ccc(CN4CCC(N5CCCC5)CC4)c(F)c3)cnc2N)cc1C [Example 325, 2-amino-N-((1S,2S)-2-((3,4-dimethylbenzyl)oxy)cyclopentyl)-5-(3-fluoro-4-((4-(pyrrolidin-1-yl)piperidin-1-yl)methyl)phenyl)nicotinamide] | > 1000 nM | < 10 nM | –
5 | CN1C[C@H](NC(=O)c2cc(-c3cnn(C)c3)cnc2N)[C@@H](OCc2ccc(-c3ccc(C(C)(C)N4CCN(CCO)CC4)cc3)cc2)C1 [Example 441] | 100 to 500 nM | < 10 nM | –
6 | Cn1cc(-c2cnc(N)c(C(=O)N[C@H]3CCC[C@@H]3OCc3ccc(C#CCCCO)cc3)c2)cn1 [Example 250, 2-amino-N-((1S,2S)-2-((4-(5-hydroxypent-1-yn-1-yl)-benzyl)oxy)-cyclopentyl)-5-(1-methyl-1H-pyrazol-4-yl)nicotinamide] | 100 to 500 nM | < 10 nM | –
7 | CN1CCC(Cc2ccc(-c3ccc(CO[C@H]4CCC[C@@H]4NC(=O)c4cc(-c5cnn(C)c5)cnc4N)cc3)cc2)CC1 [Example 239, 2-amino-5-(1-methyl-1H-pyrazol-4-yl)-N-((1S,2S)-2-((4′-((1-methylpiperidin-4-yl)methyl)-[1,1′-biphenyl]-4-yl)methoxy)cyclopentyl)nicotinamide] | < 100 nM | < 10 nM | –
8 | CCc1cc(CO[C@H]2CNC[C@@H]2NC(=O)c2cc(-c3cnn(C)c3)cnc2N)ccc1C [Example 388, 2-amino-N-((3S,4S)-4-((3-ethyl-4-methylbenzyl)oxy)pyrrolidin-3-yl)-5-(1-methyl-1H-pyrazol-4-yl)nicotinamide] | 100 to 500 nM | – | < 10 nM
9 | CCc1cc(CO[C@H]2CNC[C@@H]2NC(=O)c2cc(-c3ccccc3)cnc2N)ccc1C [Example 394, 2-amino-N-((3S,4S)-4-((3-ethyl-4-methylbenzyl)oxy)pyrrolidin-3-yl)-5-phenylnicotinamide] | 500 to 1000 nM | < 10 nM | –
10 | CN1CCN(Cc2ccc(-c3ccc(CO[C@H]4CN(C)C[C@@H]4NC(=O)c4cc(-c5cnn(C)c5)cnc4N)cc3)cc2)CC1 [Example 435, 2-amino-5-(1-methyl-1H-pyrazol-4-yl)-N-((3S,4S)-1-methyl-4-((4′-((4-methylpiperazin-1-yl)methyl)-[1,1′-biphenyl]-4-yl)methoxy)pyrrolidin-3-yl)-nicotinamide] | 100 to 500 nM | < 10 nM | –
11 | CN1CCN(Cc2ccc(-c3ccc(OC[C@H]4CCC[C@@H]4NC(=O)c4cc(-c5cnn(C)c5)cnc4N)cc3)cc2)CC1 [Example 86, 2-amino-5-(1-methyl-1H-pyrazol-4-yl)-N-((1S,2S)-2-(((4′-((4-methylpiperazin-1-yl)methyl)-[1,1′-biphenyl]-4-yl)oxy)methyl)cyclopentyl)nicotinamide] | 100 to 500 nM | < 10 nM | –
12 | COc1ccc(-c2cnc(N)c(C(=O)N[C@H]3CCC[C@@H]3OCc3ccc(-c4ccc(CN5CCN(C)CC5)cc4)cc3)c2)cc1 [Example 376] | < 100 nM | < 10 nM | –
13 | CCC1CN(Cc2ccc(-c3ccc(CO[C@H]4CCC[C@@H]4NC(=O)c4cc(-c5cnn(C)c5)cnc4N)cc3)cc2)CCN1C (stereo partly drawn) [Example 188, 2-amino-N-((1S,2S)-2-((4′-((3-ethyl-4-methylpiperazin-1-yl)-methyl)-[1,1′-biphenyl]-4-yl)methoxy)cyclopentyl)-5-(1-methyl-1H-pyrazol-4-yl)-nicotinamide] | < 100 nM | < 10 nM | –
14 | C[C@@H]1CN(C)[C@@H](C)CN1Cc1ccc(-c2ccc(CO[C@H]3CCC[C@@H]3NC(=O)c3cc(-c4cnn(C)c4)cnc3N)cc2)cc1 [Example 192, 2-amino-5-(1-methyl-1H-pyrazol-4-yl)-N-((1S,2S)-2-((4′-(((2R,5S)-2,4,5-trimethylpiperazin-1-yl)methyl)-[1,1′-biphenyl]-4-yl)methoxy)cyclopentyl)nicotinamide] | < 100 nM | < 10 nM | –
15 | Cn1cc(-c2cnc(N)c(C(=O)N[C@H]3CCC[C@@H]3OCc3ccc(-c4ccc(CN5CCN(C6CC6)CC5)cc4)cc3)c2)cn1 [Example 184, 2-amino-N-((1S,2S)-2-((4′-((4-cyclopropylpiperazin-1-yl)methyl)-[1,1′-biphenyl]-4-yl)methoxy)cyclopentyl)-5-(1-methyl-1H-pyrazol-4-yl)nicotinamide] | < 100 nM | < 10 nM | –
16 | Cn1cc(-c2cnc(N)c(C(=O)N[C@H]3CCC[C@@H]3OCc3ccc(-c4ccc(CO)cc4)cc3)c2)cn1 [Example 142, 2-amino-N-((1S,2S)-2-((4′-(hydroxymethyl)-[1,1′-biphenyl]-4-yl)methoxy)cyclopentyl)-5-(1-methyl-1H-pyrazol-4-yl)nicotinamide] | 100 to 500 nM | < 10 nM | –
17 | Cn1cc(-c2cnc(N)c(C(=O)N[C@H]3CCC[C@@H]3OCc3ccc(-c4ccc(CN5CCNCC5)cc4)cc3)c2)cn1 [Example 177, 2-amino-5-(1-methyl-1H-pyrazol-4-yl)-N-((1S,2S)-2-((4′-(piperazin-1-ylmethyl)-[1,1′-biphenyl]-4-yl)methoxy)cyclopentyl)nicotinamide] | 100 to 500 nM | < 10 nM | –
18 | CC(c1ccc(-c2ccc(CO[C@H]3CCC[C@@H]3NC(=O)c3cc(-c4cnn(C)c4)cnc3N)cc2)cc1)N1C[C@@H](C)N(C)[C@@H](C)C1 (stereo partly drawn) [Example 209, 2-amino-5-(1-methyl-1H-pyrazol-4-yl)-N-((1S,2S)-2-((4′-(1-((3S,5R)-3,4,5-trimethylpiperazin-1-yl)ethyl)-[1,1′-biphenyl]-4-yl)methoxy)-cyclopentyl)nicotinamide] | < 100 nM | < 10 nM | –
19 | CCc1cc(CO[C@H]2CNC[C@@H]2NC(=O)c2cc(-c3ccc(N(C)C)cc3)cnc2N)ccc1C [Example 405, 2-amino-5-(4-(dimethylamino)phenyl)-N-((3S,4S)-4-((3-ethyl-4-methylbenzyl)oxy)pyrrolidin-3-yl)nicotinamide] | 100 to 500 nM | < 10 nM | –
20 | CC(c1ccc(-c2ccc(CO[C@H]3CCC[C@@H]3NC(=O)c3cc(-c4cccnc4F)cnc3N)cc2)cc1)N1CCN(CCO)CC1 (stereo partly drawn) [Example 238, 6-amino-2′-fluoro-N-((1S,2S)-2-((4′-(1-(4-(2-hydroxyethyl)-piperazin-1-yl)ethyl)-[1,1′-biphenyl]-4-yl)methoxy)cyclopentyl)-[3,3′-bipyridine]-5-carboxamide] | < 100 nM | < 10 nM | –
21 | CCc1cc(CO[C@H]2CNC[C@@H]2NC(=O)c2cc(-c3ccc(C(=O)NC4CCN(C)CC4)cc3)cnc2N)ccc1C [Example 419, 2-amino-N-((3S,4S)-4-((3-ethyl-4-methylbenzyl)oxy)pyrrolidin-3-yl)-5-(4-((1-methylpiperidin-4-yl)carbamoyl)phenyl)nicotinamide] | > 1000 nM | < 10 nM | –
22 | CCc1cc(CO[C@H]2CNC[C@@H]2NC(=O)c2cc(-c3ccncc3)cnc2N)ccc1C [Example 395, 6-amino-N-((3S,4S)-4-((3-ethyl-4-methylbenzyl)oxy)pyrrolidin-3-yl)-[3,4′-bipyridine]-5-carboxamide] | 500 to 1000 nM | < 10 nM | –
23 | Cc1cccc(C)c1CO[C@H]1CCC[C@@H]1NC(=O)c1cc(-c2cnn(C)c2)cnc1N [Example 15, 2-amino-N-((1S,2S)-2-((2,6-dimethylbenzyl)oxy)cyclopentyl)-5-(1-methyl-1H-pyrazol-4-yl)nicotinamide] | > 1000 nM | > 1000 nM | –
24 | CCc1cc(CO[C@H]2CN(C)C[C@@H]2NC(=O)c2cc(-c3cnn(C4CCN(C)CC4)c3)cnc2N)ccc1C [Example 433, 2-amino-N-((3S,4S)-4-((3-ethyl-4-methylbenzyl)oxy)-1-methylpyrrolidin-3-yl)-5-(1-(1-methylpiperidin-4-yl)-1H-pyrazol-4-yl)nicotinamide] | 100 to 500 nM | < 10 nM | –
25 | CN1CCN(Cc2ccc(-c3ccc(CO[C@H]4CCC[C@@H]4NC(=O)c4cc(-c5cccnc5)cnc4N)cc3)cc2)CC1 [Example 375, 6-amino-N-((1S,2S)-2-((4′-((4-methylpiperazin-1-yl)methyl)-[1,1′-biphenyl]-4-yl)methoxy)cyclopentyl)-[3,3′-bipyridine]-5-carboxamide] | < 100 nM | < 10 nM | –
